Test results published in patent US20110224311A1, “Natural Product Sweetness Enhancers” (priority 2009, published 2011).
Several values for one entry are separate records, joined by “and”; a condition that tells them apart may be missing. Identical values can stand only once. Entries after “also recorded” stand apart in the source; their conditions may differ. Like-named read-outs stand apart in the source and are kept apart here.

Assays:
[1] = test system: test group having five (5) subjects; test: Forced-choice taste test of Reb C water solution against water; assay type: in vivo, human; details: 250 μM Reb C water solution
Protocol: The taste of a 250 μM Reb C solution was evaluated by a test group having five (5) subjects as follows (Forced-choice): Subjects were presented with 2 cups, each containing 10 ml of either 250 μM Reb C water solution or water (room temperature). […] Subjects were asked to sip most or all of the 10 ml from the first cup, swish the liquid in their oral cavity, and expectorate into a cup, then rinse their mouths vigorously with water. Soon thereafter, the contents of the second cup were sampled in the same manner. Then, subjects were asked to choose the sweeter of the two samples, or if not sweet, to describe the qualitative taste profile of the sample having a detectable taste.

[2] = test system: trained judges (expert taste panel); test: Double-blind sequential monadic sweetness intensity test, taste and swallow (Example 6 protocol), beverages and solutions; assay type: in vivo, human; details: for intrinsic sweetness in unsweetened beverage: Reb C at 190 ppm or below (95, 190, 285 ppm tested)
10 panelists = test: Quantitative taste profile by trained panelists (Example 11); assay type: in vivo, human
Protocol: The taste of 150, 300, and 600 μM Reb C was evaluated by a test group. 10 panelists were trained over a period of a few weeks to provide a quantitative flavor profile of Reb C. Panelists first were trained using standard tastants representing the different taste modalities given in FIG. 10 (i.e., sweet, bitter, salt, sour, and licorice). They then were trained to use the scales when flavors were mixed together. All intensity ratings are on scales ranging from 0 (no taste) to 8 (highest intensity). The intensity rating for sweet is essentially the same as used in Examples 1 and 6. The taste profiles were obtained for 150, 300, and 600 μM Reb C. Reb A (0.2 mg/ml, a concentration used in some food/beverage applications for sweetening) was also evaluated in the test for comparison. The scale is not linear at the bottom. A rating of 1 is around the threshold for sweetness detection.

[3] = test system: trained judges (expert taste panel); test: Double-blind sequential monadic sweetness intensity test, sip and spit (Example 1 protocol); assay type: in vivo, human
From the text: Subjects were given three samples to evaluate. Each subject was directed to swirl the first sample in his or her mouth for 3-5 seconds, expectorate the entire sample into a discard cup, and then assess the sweetness intensity of the sample. The intensity was rated on a score card by marking a numerical value along a scale from 0 to 8 (e.g., 0=none, 2=slight, 4=definite, 8=very strong). Following the decision regarding the sweetness intensity, subjects were instructed to rinse their mouth with water and spit in the discard cup. Subjects then were given unsalted crackers to cleanse the palate. A period of 10 minutes elapsed between presentations of each sample to reduce the potential influence of residual taste effects. A second sample was then presented and evaluated as above and the same procedure was followed until all three products were evaluated. Sample presentation was randomized to avoid order of presentation bias. To participate in the sensory panel, judges or subjects were chosen from an expert taste panel. These subjects were screened for taste acuity and were trained in evaluating solutions using the sip and spit protocol and were trained in using a rating ballot. The number of judges who participated in the study was 20. The female subjects were all non-pregnant and all volunteers were of <55 years of age with no history of allergy to sucrose. Judges were asked to execute an informed consent form. Specifically, the following instructions were given to the judges: Please take a sip of water. Carefully take the cap off the sample cup placed in front of you. Sip, swirl for 3-5 seconds, and then spit the sample into the cup provided, then assess the intensity of the sweetness of the sample. Please evaluate the sample for the intensity of the sweet flavor and put a vertical mark on the number that best describes the intensity. Rinse your mouth with the water provided and spit into the discard cup. Use crackers provided to cleanse your palate before evaluating the next sample. If any other flavor was present in the sample please describe it. Please rinse your mouth again several times and have some more water and unsalted crackers. You will now have a rest period of 10 minutes before you will be given the next sample.

[4] = test system: test group having four (4) subjects; test: Open qualitative taste report of Reb C water solutions; assay type: in vivo, human; details: 250 and 300 μM Reb C in water, subjects 1 to 4
Protocol: The taste of 250 μM and 300 μM Reb C solutions were evaluated as follows by another test group having four (4) subjects as follows: 10 ml solutions of 250 and 300 μM Reb C in water were sampled by four subjects who were asked to report their qualitative taste experience of the solutions. […] The subjects have the following qualitative taste descriptions: […]

[5] = cited from earlier work
[6] = cited from earlier work; remark: listed apart in the source
[7] = 5% (w/v-%) fructose solution + 300 μM enhancer, versus 7% (w/v-%) fructose
[8] = 5% (w/v-%) sucrose solution + 300 μM enhancer, versus 7% (w/v-%) sucrose, scale 0 to 8
[9] = 8% (w/v-%) sucrose solution + 300 μM enhancer, versus 11% (w/v-%) sucrose

SMILES: C=C1CC23CCC4C(C)(C(=O)OC5OC(CO)C(O)C(O)C5O)CCCC4(C)C2CCC1(OC1OC(CO)C(O)C(OC2OC(CO)C(O)C(O)C2O)C1OC1OC(C)C(O)C(O)C1O)C3 (stereo not drawn) [Reb C, rebaudioside C]
- identification of the sample against water (forced-choice) ([1]; 10 ml, room temperature, five subjects): All subjects correctly identified the sample containing Reb C
- qualitative taste description (one per subject) ([1]; subjects 1 to 5): Metallic, not sweet; also recorded: Aversive (“Nasty”); also recorded: Slight sweet, astringent; also recorded: Faintly sweet; also recorded: Slight sweet/licorice
- sweetness of sweetener solution with enhancer compared with higher sweetener concentration ([2]; 7.14% w/v erythritol water solution + 285 ppm (300 μM) Reb C, versus 7.14% and 10% erythritol): significantly sweeter than the 7.14% erythritol solution alone, but did not achieve the sweetness of a 10% erythritol solution; also recorded: acts synergistically
- statistical significance of the sweetness enhancing effect ([2]; 8% (w/v-%) fructose solution + 300 μM Reb C): not statistically significant
- sweetness of sweetener solution with enhancer compared with higher sweetener concentration ([2]; 8% (w/v-%) fructose solution + 300 μM Reb C, versus 8% and 11% fructose): between that of the 8% (w/v-%) fructose solution and that of an 11% (w/v-%) fructose solution
- sweetness of beverage with enhancer compared with higher sweetener concentration ([2]; cola beverage buffered with citric acid, 10.39% (w/v-%) HFCS55 + 190 ppm Reb C, versus 14.29% HFCS55): significantly increases the sweetness intensity to that of 14.29% HFCS55; also recorded: synergistically enhanced
- sweetness of beverage with enhancer compared with beverage alone ([2]; cola beverage buffered with phosphoric acid, 10.39% (w/v-%) HFCS55 + 190 ppm Reb C): is not higher than that of 10.39% (w/v-%) HFCS55 cola beverage alone
- sweetness of beverage with enhancer compared with higher sweetener concentration ([2]; cola beverage buffered with phosphoric acid, 10.39% (w/v-%) HFCS55 + 310 ppm Reb C, versus 14.29% HFCS55): increased significantly the sweetness intensity of a cola beverage containing 10.39% (w/v-%) HFCS55, but did not reach the sweetness of a 14.29% (w/v-%) HFCS55 cola beverage; also recorded: enhances the sweetness intensity
- sweetness of beverage with enhancer compared with higher sweetener concentration ([2]; iced tea, 8% (w/v-%) sucrose + 300 μM Reb C, versus 8% and 11% sucrose): between that of the 8% (w/v-%) solution and that of an 11% (w/v-%) sucrose solution; also recorded: enhances the sweetness intensity
- sweetness of beverage with enhancer compared with higher sweetener concentration ([2]; iced tea, 10.39% (w/v-%) HFCS55 + 300 μM Reb C, versus 14.29% HFCS55): indistinguishable from that of a 14.29% (w/v-%) HFCS55 (HFCS) solution; also recorded: acts synergistically
- sweetness of beverage with enhancer compared with higher sweetener concentration ([2]; lemon-lime soda (citric acid), 10.39% (w/v-%) HFCS55 + 190 ppm Reb C, versus 14.29% HFCS55): did not reach the sweetness of a 14.29% (w/v-%) HFCS55 solution; also recorded: synergistically enhanced
- intrinsic sweetness in unsweetened beverage ([2]; unsweetened cola beverage): does not increase the sweetness of an unsweetened cola beverage
- intrinsic sweetness in unsweetened beverage ([2]; unsweetened lemon-lime soda (FIG. 16)): does not increase the sweetness of an unsweetened cola beverage
- unpleasant tastes, bitter and licorice (10 panelists; 150, 300 and 600 μM Reb C alone): barely detected
- intrinsic sweetness (10 panelists; 150, 300 and 600 μM Reb C, scale 0 to 8): little or no intrinsic sweetness
- unpleasant tastes, bitter and licorice (10 panelists; Reb C combined with sugar): undetected
- sweetness of sweetener solution with enhancer compared with higher sweetener concentration [3, 7]: close to that of a 7% (w/v-%) fructose solution; also recorded: acts synergistically
- sweetness of sweetener solution with enhancer compared with higher sweetener concentration [3, 8]: indistinguishable from that of a 7% (w/v-%) sucrose solution; also recorded: acts synergistically
- sweetness of sweetener solution with enhancer compared with higher sweetener concentration ([3]; 8% (w/v-%) sucrose solution + 150 μM Reb C, versus 8% and 11% (w/v-%) sucrose): between that of the 8% (w/v-%) sucrose solution and that of an 11% (w/v-%) sucrose solution; also recorded: significantly enhanced
- sweetness of sweetener solution with enhancer compared with higher sweetener concentration [3, 9]: close to that of an 11% (w/v-%) sucrose solution; also recorded: significantly enhanced
- mean sweetness intensity score ([3]; 8% (w/v-%) sucrose solution with 150 μM Reb C, scale 0 to 8): 6.10
- qualitative taste description (one per subject) [4]: bitter and/or licorice

SMILES: C=C1C[C@@]23CC[C@H]4[C@@](C)(CCC[C@@]4(C)C(=O)O[C@@H]4O[C@H](CO)[C@@H](O)[C@H](O)[C@H]4O)[C@@H]2CC[C@]1(O[C@@H]1O[C@H](CO)[C@@H](O)[C@H](O)[C@H]1O[C@@H]1O[C@@H](C)[C@H](O)[C@@H](O)[C@H]1O)C3 [Dulc A, dulcoside A]
- sweetness of sweetener solution with enhancer compared with higher sweetener concentration [3, 7]: achieved that of a 7% (w/v-%) fructose solution; also recorded: acts synergistically
- sweetness of sweetener solution with enhancer compared with higher sweetener concentration [3, 8]: achieved that of a 7% (w/v-%) sucrose solution; also recorded: acts synergistically
- sweetness of sweetener solution with enhancer compared with higher sweetener concentration [3, 9]: approached that of an 11% (w/v-%) sucrose solution; also recorded: acts synergistically
- off-tastes ([3]; 8% (w/v-%) sucrose solution with 300 μM Dulc A): No off-tastes were detected
- mean sweetness intensity score ([3]; 8% (w/v-%) sucrose solution with 300 μM Dulc A, scale 0 to 8): 6.3
- sweetness relative to sucrose ([5]; known values, background): 30 times sweeter than sucrose

SMILES: OC[C@H]1O[C@@](CO)(O[C@H]2O[C@H](CO)[C@@H](O)[C@H](O)[C@H]2O)[C@@H](O)[C@@H]1O [sucrose, α-D-glucopyranosyl-(1→2)-β-D-fructofuranose, reference compound]
- mean sweetness intensity score ([3]; 8% (w/v-%) sucrose solution alone (low-concentration comparator), scale 0 to 8): 5.30 and 5.0
- mean sweetness intensity score ([3]; 11% (w/v-%) sucrose solution alone (high-concentration comparator), scale 0 to 8): 6.95 and 6.7

SMILES: C=C1C[C@@]23CC[C@H]4[C@@](C)(CCC[C@@]4(C)C(=O)O[C@@H]4O[C@H](CO)[C@@H](O)[C@H](O)[C@H]4O)[C@@H]2CC[C@]1(O[C@@H]1O[C@H](CO)[C@@H](O)[C@H](O[C@@H]2O[C@H](CO)[C@@H](O)[C@H](O)[C@H]2O)[C@H]1O[C@@H]1O[C@H](CO)[C@@H](O)[C@H](O)[C@H]1O)C3 [rebaudioside A]
- effect in mixtures with other sweeteners ([6]; mixture with sucrose, sweetness intensity equivalent to 7% (w/v-%) sucrose): additive effect
- effect in mixtures with other sweeteners ([6]; mixtures with fructose and glucose, sweetness intensity equivalent to 3% (w/v-%) sucrose): additive effect
- effect in mixtures with other sweeteners ([6]; mixtures with fructose, glucose and sucrose, sweetness intensity equivalent to 5% (w/v-%) sucrose): additive effect
- effect in mixtures with other sweeteners ([6]; mixtures with glucose and fructose, sweetness intensity equivalent to 7% (w/v-%) sucrose): suppressive effect
- effect in mixtures with other sweeteners ([6]; mixtures with sucrose, sweetness intensity equivalent to 3% (w/v-%) sucrose): synergistic effect
- aftertaste among the diterpene glycosides of Stevia extracts ([5]; bitter and licorice-like aftertaste): least aftertaste
